Molecules are shown by their SMILES.

Experimental findings from patent JP2014001205A, “動物の寄生虫防除剤” (Nissan Chemical Corp, priority 2012, dated 2014) are described below.

For test [1], the system named is American dog tick (Dermacentor variabilis) first nymphs [American dog tick(Dermacentor variabilis)第1若虫]. Put plainly: Efficacy test against American dog tick (Test Example 2), glass container film contact. Type of test: in vivo. As to conditions: 96 h, 10μg/cm2, 5 first nymphs (mixed sex), 25℃, 4 days, duplicate, read-out: efficacy (number with abnormal behaviour due to compound / number released × 100).

The subject of test [2] is cat flea (Ctenocephalides felis) adults [ネコノミ(Ctenocephalides felis)成虫]. Description: Efficacy test against cat flea (Test Example 1), glass container film contact. Type of test: in vivo. The conditions noted are these: 96 h, 10μg/cm2, 5 adults (mixed sex), 25℃, 4 days, duplicate, read-out: efficacy (number of insects with abnormal behaviour due to compound / number released × 100).

For `CCN(C(=O)COC(C)=O)c1cn(-c2cccnc2)nc1Cl` [1−082], the pest or weed control at 10 µg/cm2 in test [1] and in test [2] was ≥ 80% in each case.

Consider `CSC[C@@H](C)C(=O)N(C)c1cn(-c2cccnc2)nc1Cl` [1−039(S)−(−)], for which the pest or weed control at 10 µg/cm2 in test [1] and in test [2] was ≥ 80% in each case.

Regarding `CCCC(C)C(=O)N(CC)c1cn(-c2cccnc2)nc1Cl` (centres unmarked) [1−483], the pest or weed control at 10 µg/cm2 in test [1] and in test [2] was ≥ 80% throughout.

As to `CCCSC(C)C(=O)N(CC)c1cn(-c2cccnc2)nc1Cl` (centres unmarked) [1−246], the pest or weed control at 10 µg/cm2 in test [1] and in test [2] was ≥ 80% throughout.

As to `CCN(C(=O)C=CSC)c1cn(-c2cccnc2)nc1Cl` (single isomer, unassigned) [1−071], the pest or weed control at 10 µg/cm2 in test [1] and in test [2] was ≥ 80% each time.

As for `CCN(C(=O)CSC)c1cn(-c2cccnc2)nc1Cl` [1−079], the pest or weed control at 10 µg/cm2 in test [1] and in test [2] was ≥ 80% each time.

In the case of `Cc1c(NC(=O)OC(C)(C)C)cnn1-c1cccnc1` [5−001, tert−ブチル 5−メチル−1−(ピリジン−3−イル)−1H−ピラゾール−4−イルカーバメート], in test [2], the pest or weed control at 10 µg/cm2 is ≥ 80%.

For `CC(C)NC(=S)Nc1cn(-c2cccnc2)nc1Cl` [1−554], in test [2], the pest or weed control at 10 µg/cm2 is ≥ 80%.

Turning to `CCNC(=S)Nc1cn(-c2cccnc2)nc1C` [1−549], in test [2], the pest or weed control at 10 µg/cm2 was ≥ 80%.

As to `CCN(C(=O)NCC(F)(F)F)c1cn(-c2cccnc2)nc1Cl` [1−501], in test [2], the pest or weed control at 10 µg/cm2 was ≥ 80%.

Consider `CCN(C(=O)CS(C)(=O)=O)c1cn(-c2cccnc2)nc1Cl` [1−080], for which the pest or weed control at 10 µg/cm2 in test [1] and in test [2] was ≥ 80% in each case.

In the case of `CCc1nn(-c2cccnc2)cc1N(CC)C(=O)C(C)CSC` (centres unmarked) [1−484], in test [2], the pest or weed control at 10 µg/cm2 is ≥ 80%.

Regarding `CCN(C(=O)[C@H](C)CS(C)(=O)=O)c1cn(-c2cccnc2)nc1Cl` [1−050(S)−(+)], the pest or weed control at 10 µg/cm2 in test [1] and in test [2] was ≥ 80% throughout.

In the case of `C=CCNC(=O)N(CC)c1cn(-c2cccnc2)nc1Cl` [1−595], the pest or weed control at 10 µg/cm2 in test [2] is ≥ 80%.

With `CCNC(=O)N(C)c1cn(-c2cccnc2)nc1Cl` [1−551], in test [2], the pest or weed control at 10 µg/cm2 is ≥ 80%.

`CCN(C(=O)CCC[S+](C)[O-])c1cn(-c2cccnc2)nc1Cl` (centres unmarked) [1−527]: the pest or weed control at 10 µg/cm2 in test [2] is ≥ 80%.

Regarding `CCSC(C)C(=Nc1cn(-c2cccnc2)nc1Cl)SC` (centres unmarked) [3−006, メチル N−3−クロロ−1−(ピリジン−3−イル)−1H−ピラゾール−4−イル−2−(エチルチオ)プロパンイミドチオエート], the pest or weed control at 10 µg/cm2 in test [2] is ≥ 80%.

`CC(C)(C)OC(=O)N(CC#N)c1cn(-c2cccnc2)nc1Cl` [1−522]: the pest or weed control at 10 µg/cm2 in test [2] was ≥ 80%.

As to `CCc1nn(-c2cccnc2)cc1NC(=O)OC(C)(C)C` [1−435], the pest or weed control at 10 µg/cm2 in test [1] and in test [2] was ≥ 80% each time.

Regarding `CCN(C(=O)C(C)CS(=O)(=O)N(C)C)c1cn(-c2cccnc2)nc1Cl` (centres unmarked) [1−596], the pest or weed control at 10 µg/cm2 in test [2] was ≥ 80%.
